These are literature values, as cited in US4093713A, “Dipeptide derivatives with central nervous system activity and preparation thereof” (Ayerst McKenna & Harrison Ltd., priority 1977, dated 1978).

Read-outs that look alike come from different tables or passages of the source.

Series [1] has as its system sedative effects of deserpidine. The following applies: mice; literature: Plotnikoff.
For series [2] the following is noted: in vivo.
For series [3], the system named is behavioral effects of L-DOPA. Conditions: literature: Plotnikoff 1971, Friedman 1973.
The test system of a further series is effects of oxotremorin. The following applies: literature: Plotnikoff 1972.
The test system of series [4] is sedative effects of deserpidine. The following applies: monkeys; literature: Plotnikoff.

Regarding “H-L-prolyl-L-leucyl-glycinamide [H-Pro-Leu-Gly-NH2]”, the “reversal of the sedative effects of deserpidine” value in series [1] was “reverses the sedative effects of deserpidine”. Also, in series [2], the duration of action entry is “short duration of action”; the “first step in the inactivation” value was “proteolytic cleavage of the Pro-Leu bond with formation of proline and leucyl-glycinamide”. Further, the “potentiation of the behavioral effects of L-DOPA” value in series [3] was “potentiates the behavioral effects of (3,4-dihydroxyphenyl)-L-alanine (L-DOPA)”. For the same substance, the “antagonism of the effects of oxotremorin” value with effects of oxotremorin is “antagonizes the effects of oxotremorin”. For the same substance, in series [4], the “reversal of the sedative effects of deserpidine” value was “reverses the sedative effects of deserpidine”.
